Measured values reported in article PMC6104605, “Discovery of new chromen-4-one derivatives as telomerase inhibitors through regulating expression of dyskerin” (Journal of Enzyme Inhibition and Medicinal Chemistry, 2018).
Like-named read-outs stand apart in the source and are kept apart here.

Columns and labels:
[1] = tested on: human gastric cancer cells SGC-7901; test: MTT anticancer assay, SGC-7901; type: cell-based; details: for IC50: Homo sapiens, SGC-7901, MTT, 48 h exposure, mean ± SD
Description: (§1) The MTT was purchased from Sigma. Cell Cycle Analysis Kit and Apoptosis Analysis Kit were purchased from Bestbio (China). Mitochondrial membrane potential assay kit with JC-1 was purchased from Beyotime (China). All the materials were used as received without further purification unless noted specifically. The cell culture was maintained on DMEM medium (Hyclone, US) supplemented with 10% fetal bovine serum (Sijiqing, China), 100 U/mL penicillin and 100 µg/mL streptomycin in 25-cm^2 culture flasks at 37 °C humidified atmosphere with 5% CO2. Drugs were dissolved in DMSO and filtered through 0.22-µm pore-size filter units before addition to cell line appropriate media. When tumor cells were grown to log phase, diluting to 5 × 10^4 cells mL^−1 with the complete medium, 100 µL of the obtained cell suspension was added to each well of 96-well culture plates. The subsequent incubation was performed at 37 °C, 5% CO2 atmosphere for 48 h before subjecting to anti-proliferation assessment. After 48-h exposure period, 20 µL of PBS containing 5 mg·mL^−1 of MTT was added to each well. After 4 h, the medium was replaced by 150 µL DMSO to dissolve the purple formazan crystals produced. […] The data represented the mean of three experiments in triplicate and were expressed as means ± SD.

human glioma cell U87 = test: MTT anticancer assay, U87; type: cell-based; details: 48 h exposure, mean ± SD, dash = footnote d 'None'
Description: (§2) The MTT was purchased from Sigma. Cell Cycle Analysis Kit and Apoptosis Analysis Kit were purchased from Bestbio (China). Mitochondrial membrane potential assay kit with JC-1 was purchased from Beyotime (China). All the materials were used as received without further purification unless noted specifically. The cell culture was maintained on DMEM medium (Hyclone, US) supplemented with 10% fetal bovine serum (Sijiqing, China), 100 U/mL penicillin and 100 µg/mL streptomycin in 25-cm^2 culture flasks at 37 °C humidified atmosphere with 5% CO2. Drugs were dissolved in DMSO and filtered through 0.22-µm pore-size filter units before addition to cell line appropriate media. When tumor cells were grown to log phase, diluting to 5 × 10^4 cells mL^−1 with the complete medium, 100 µL of the obtained cell suspension was added to each well of 96-well culture plates. The subsequent incubation was performed at 37 °C, 5% CO2 atmosphere for 48 h before subjecting to anti-proliferation assessment. After 48-h exposure period, 20 µL of PBS containing 5 mg·mL^−1 of MTT was added to each well. After 4 h, the medium was replaced by 150 µL DMSO to dissolve the purple formazan crystals produced. The absorbance at 492 nm of each well was measured on an ELISA plate reader. The data represented the mean of three experiments in triplicate and were expressed as means ± SD. The IC50 value was defined as the concentration at which 50% of the cells could survive. The following human tumor cell lines were used in the assay: human gastric cancer cells SGC-7901, human liver cancer cell SMMC-7721 and HepG2, human cervical cancer cell Hela and human glioma cell U87.

[2] = tested on: human cervical cancer cell Hela; test: MTT anticancer assay, Hela; type: cell-based; details: read-out: IC50 Hela
Description: as §1

[3] = tested on: human liver cancer cell SMMC-7721; test: MTT anticancer assay, SMMC-7721; type: cell-based; details: 48 h exposure, mean ± SD
Description: as §2

[4] = tested on: human liver cancer cell HepG2; test: MTT anticancer assay, HepG2; type: cell-based; details: 48 h exposure, mean ± SD, dash = footnote d 'None'
Description: as §2

[5] = tested on: human normal gastric mucosa cell (GES-1); test: Proliferative inhibition of human normal cell (MTT); type: cell-based
Excerpt: In order to determine the selective cell toxicity of selected compounds. We subsequently conducted a proliferative inhibition assay with human normal gastric mucosa cell (GES-1).

telomerase = biological target: T1, telomerase (Homo sapiens, UniProt O14746); test: Telomerase activity assay (TRAP-PCR-ELISA); type: biochemical; details: SGC-7901 cells extracts, 24-h treatment, mean ± SD
T1 construct: endogenous in cells; host or cells: SGC-7901
Description: Inhibit of telomerase activity was tested using the TRAP-PCR-ELISA assay. In detail, the SGC-7901 cells were firstly maintained in DMEM medium (GIBCO, New York) supplemented with 10% fetal bovineserum (GIBCO, NewYork), streptomycin (0.1 mg/mL) and penicillin (100 IU/mL) at 37 °C in a humidified atmosphere containing 5% CO2. After trypsinisation, 5 × 10^4 cultured cells in logarithmic growth were seeded into T25 flasks (Corning, New York) and cultured to allow to adherence. The cells were then incubated with Staurosporine (Santa Cruz, Santa Cruz) and the drugs with a series of concentration as 60, 20, 6.67, 2.22, 0.74, 0.25 and 0.082 l g/mL, respectively. After 24-h treatment, the cells were harvested by cell scraper orderly following by washed once with PBS. The cells were lysed in 150 µL RIPA cell lysis buffer (Santa Cruz, Santa Cruz) and incubated on ice for 30 min. The cellular supernatants were obtained via centrifugation at 12,000 g for 20 min at 4 °C and stored at −80 °C. The TRAP-PCR-ELISA assay was performed using a telomerase detection kit (Roche, Basel, Switzerland) according to the manufacturer’s protocol. In brief, 2 µL of cell extracts were mixed with 48 µL TRAP reaction mixtures. PCR was then initiated at 94 °C, 120 s for predenaturation and performed using 35 cycles each consisting of 94 °C for 30 s, 50 °C for 30 s, 72 °C for 90 s. Then 20 µL of PCR products were hybridised to a digoxigenin (DIG)-labeled telomeric repeat specific detection probe. And the PCR products were immobilised via the biotin-labeled primer to a streptavidin-coated microtiter plate subsequently. The immobilised DNA fragment were detected with a peroxidase-conjugated anti-DIG antibody and visualised following addition of the stop regent. The microtitre plate was assessed on TECAN Infinite M200 microplate reader (Mannedorf, Switzerland) at a wavelength of 490 nm, and the final value were presented as mean ± SD.

[6] = Octanol water partition coefficient, shake flask; type: physicochemical; details: octanol/PBS (pH 7.4), pH 7.4, shake flask, octanol/PBS pH 7.4, 37 °C, read-out: Log p (octanole water partition coefficient)
Description: Octanole water partition coefficients was measured by the method of shake flask with slight modification. The aqueous phase was replaced by PBS (pH 7.4). First, the phase of octanol and the aqueous were saturated with each other. Then, the mixture containing title compounds was shaken at 37 °C. After 24 h, the mixture was centrifuged at 4000 rpm for 30 min, followed by the measured with ultraviolet spectrophotometer. At last, logP values were calculated.

[7] = GES1, MTT, human normal gastric mucosa cell, read-out: GES-1 IC50

T1 sequence (O14746 whole entry): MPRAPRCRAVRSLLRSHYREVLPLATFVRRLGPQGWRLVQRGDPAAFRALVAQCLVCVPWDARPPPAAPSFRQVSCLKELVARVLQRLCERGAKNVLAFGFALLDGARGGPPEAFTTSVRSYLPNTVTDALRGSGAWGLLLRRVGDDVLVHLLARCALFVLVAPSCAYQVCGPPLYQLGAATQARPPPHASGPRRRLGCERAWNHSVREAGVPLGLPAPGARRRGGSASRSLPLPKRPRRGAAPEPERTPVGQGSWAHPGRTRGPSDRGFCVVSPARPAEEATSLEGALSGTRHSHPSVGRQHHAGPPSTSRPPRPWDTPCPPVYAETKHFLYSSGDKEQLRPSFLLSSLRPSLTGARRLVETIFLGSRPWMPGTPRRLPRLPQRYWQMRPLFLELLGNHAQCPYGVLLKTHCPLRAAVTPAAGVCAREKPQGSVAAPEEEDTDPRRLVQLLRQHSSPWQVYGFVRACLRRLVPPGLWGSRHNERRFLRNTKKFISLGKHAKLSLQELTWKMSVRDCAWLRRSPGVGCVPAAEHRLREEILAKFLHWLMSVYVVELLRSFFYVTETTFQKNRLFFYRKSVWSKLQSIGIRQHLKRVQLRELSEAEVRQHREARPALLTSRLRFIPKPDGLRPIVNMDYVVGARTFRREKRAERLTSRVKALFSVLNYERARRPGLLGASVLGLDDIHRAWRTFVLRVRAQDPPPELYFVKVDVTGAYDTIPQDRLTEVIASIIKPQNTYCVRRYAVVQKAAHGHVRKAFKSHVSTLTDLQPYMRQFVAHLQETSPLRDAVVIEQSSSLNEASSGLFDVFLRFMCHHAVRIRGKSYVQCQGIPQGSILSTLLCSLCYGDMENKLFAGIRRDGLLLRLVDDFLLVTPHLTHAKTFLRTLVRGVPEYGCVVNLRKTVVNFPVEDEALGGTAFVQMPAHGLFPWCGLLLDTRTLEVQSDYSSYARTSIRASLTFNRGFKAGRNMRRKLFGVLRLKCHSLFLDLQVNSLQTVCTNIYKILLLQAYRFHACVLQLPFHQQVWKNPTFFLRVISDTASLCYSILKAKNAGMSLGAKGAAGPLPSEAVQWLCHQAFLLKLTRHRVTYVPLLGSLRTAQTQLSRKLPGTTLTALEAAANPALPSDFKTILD
T1 sequence (O60832 whole entry partner): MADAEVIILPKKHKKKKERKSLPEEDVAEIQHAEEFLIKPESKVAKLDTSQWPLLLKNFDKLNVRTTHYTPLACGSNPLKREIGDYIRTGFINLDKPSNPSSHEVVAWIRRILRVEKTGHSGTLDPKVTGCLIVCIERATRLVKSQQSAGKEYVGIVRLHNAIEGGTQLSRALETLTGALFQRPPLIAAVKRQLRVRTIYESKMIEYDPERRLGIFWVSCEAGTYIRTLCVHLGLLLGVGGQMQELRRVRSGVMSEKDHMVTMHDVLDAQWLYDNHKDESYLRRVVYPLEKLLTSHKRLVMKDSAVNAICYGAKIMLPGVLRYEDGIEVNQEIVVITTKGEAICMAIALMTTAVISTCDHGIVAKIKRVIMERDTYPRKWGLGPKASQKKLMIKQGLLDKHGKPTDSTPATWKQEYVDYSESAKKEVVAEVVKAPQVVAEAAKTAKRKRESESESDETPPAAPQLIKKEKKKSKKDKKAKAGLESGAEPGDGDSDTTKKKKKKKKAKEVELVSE
T1 sequence (Q9NX24 whole entry partner): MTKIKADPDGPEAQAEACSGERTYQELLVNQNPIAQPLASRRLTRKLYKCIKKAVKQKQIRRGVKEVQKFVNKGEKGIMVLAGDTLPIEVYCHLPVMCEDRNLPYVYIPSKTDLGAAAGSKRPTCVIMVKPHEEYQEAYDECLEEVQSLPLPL
T1 sequence (Q9NPE3 whole entry partner): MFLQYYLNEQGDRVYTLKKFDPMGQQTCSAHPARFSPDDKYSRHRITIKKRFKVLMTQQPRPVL
T1 sequence (Q9NY12 whole entry partner): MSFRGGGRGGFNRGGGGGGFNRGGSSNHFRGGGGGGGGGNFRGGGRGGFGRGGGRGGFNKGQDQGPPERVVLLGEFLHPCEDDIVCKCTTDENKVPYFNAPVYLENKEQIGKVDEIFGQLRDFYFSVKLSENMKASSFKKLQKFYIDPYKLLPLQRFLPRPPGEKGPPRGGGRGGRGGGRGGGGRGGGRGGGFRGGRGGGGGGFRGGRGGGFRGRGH

Row | SMILES | IC50 [1] [µM] | IC50 (human glioma cell U87) [µM] | IC50 ([2]; 48 h) [µM] | IC50 [3] [µM] | IC50 [4] [µM] | IC50 [5, 7] [µM] | IC50 ([2]; MTT, 48 h exposure, mean ± SD) [µM] | IC50 (telomerase) [µM] | activity against SGC-7901 cells (in words) [1] | logP at 24 h [6] | IC50 ([5]; Homo sapiens, GES1, read-out: GES-1 IC50) [µM]
1 | COc1cccc2c1C(=O)c1c(O)c3c(c(O)c1C2=O)C[C@@](O)(C(=O)CO)C[C@@H]3O[C@H]1C[C@H](N)[C@H](O)[C@H](C)O1 [ADM, doxorubicin, reference compound] | 0.98 ± 0.27 | 2.24 ± 0.12 | 0.21 ± 0.03 | 0.81 ± 0.06 | 2.87 ± 0.21 |  |  |  |  |  | 
2 | COc1cc(OC)c2c(=O)c(OCCCCN3CCN(C(=O)c4ccc(F)cc4F)CC3)c(-c3cc(OC)c(OC)c(OC)c3)oc2c1 [Compound 5a] | 16.6 ± 1.32 | 16.6 ± 1.95 |  | 28 ± 0.98 | 33.4 ± 1.56 | 4180 ± 600 | 25.5 ± 1.02 | 11.3 ± 0.99 |  |  | 
3 | COc1cc(OC)c2c(=O)c(OCCCCN3CCN(C(=O)c4c(F)cccc4F)CC3)c(-c3cc(OC)c(OC)c(OC)c3)oc2c1 [Compound 5b] | 10.5 ± 1.08 | > 60 |  | 17 ± 0.99 | 23.4 ± 1.23 |  | 11.3 ± 0.85 |  |  |  | 
4 | COc1cc(OC)c2c(=O)c(OCCCCN3CCN(C(=O)c4c(F)cccc4Cl)CC3)c(-c3cc(OC)c(OC)c(OC)c3)oc2c1 [Compound 5c] | 9.31 ± 1.05 | 25.4 ± 1.55 |  | 15.9 ± 1.01 | 28 ± 1.84 |  | 9.77 ± 0.62 |  |  |  | 
5 | COc1cc(OC)c2c(=O)c(OCCCCN3CCN(C(=O)c4cccc(F)c4)CC3)c(-c3cc(OC)c(OC)c(OC)c3)oc2c1 [Compound 5d] | 18.5 ± 0.89 | > 60 |  | 32 ± 1.53 | 35.5 ± 1.65 |  | 31.4 ± 1.73 |  |  |  | 
6 | COc1cc(OC)c2c(=O)c(OCCCCN3CCN(C(=O)c4ccccc4[N+](=O)[O-])CC3)c(-c3cc(OC)c(OC)c(OC)c3)oc2c1 [Compound 5e] | 13.2 ± 0.88 | > 60 |  | 31.3 ± 1.63 | > 60 | 10000 ± 1220 | 25.1 ± 1.5 | 13.3 ± 1.25 |  |  | 
7 | COc1cc(OC)c2c(=O)c(OCCCCN3CCN(C(=O)c4ccc(C(F)(F)F)cc4)CC3)c(-c3cc(OC)c(OC)c(OC)c3)oc2c1 [Compound 5f] | 6.97 ± 0.85 | 18 ± 0.66 |  | 24.2 ± 1.44 | 37.4 ± 1.69 | 2980 ± 550 | 14.4 ± 0.8 |  | good activity | 3.35 | 
8 | COc1cc(OC)c2c(=O)c(OCCCCN3CCN(C(=O)c4ccc([N+](=O)[O-])cc4)CC3)c(-c3cc(OC)c(OC)c(OC)c3)oc2c1 [Compound 5g] | 10.5 ± 1.01 | 21.6 ± 0.9 |  | 23.2 ± 1.83 | 40.5 ± 1.95 |  | 17 ± 1.51 |  |  |  | 
9 | COc1cc(OC)c2c(=O)c(OCCCCN3CCN(C(=O)c4ccc(Cl)cc4)CC3)c(-c3cc(OC)c(OC)c(OC)c3)oc2c1 [Compound 5h] | 9.22 ± 1 | 25.6 ± 1.4 |  | 14.1 ± 1.27 | 35.3 ± 1.97 |  | 22.4 ± 0.87 |  |  |  | 
10 | COc1cc(OC)c2c(=O)c(OCCCCN3CCN(C(=O)c4ccccc4)CC3)c(-c3cc(OC)c(OC)c(OC)c3)oc2c1 [Compound 5j] | 7.56 ± 1.01 | 20.3 ± 1.25 |  | 7.29 ± 0.82 | > 60 |  | 8.3 ± 0.3 |  | good activity | 3.01 | 
11 | COc1cc(OC)c2c(=O)c(OCCCCN3CCN(C(=O)c4cc([N+](=O)[O-])cc([N+](=O)[O-])c4)CC3)c(-c3cc(OC)c(OC)c(OC)c3)oc2c1 [Compound 5k] | 5.12 ± 0.5 | 8.14 ± 0.22 |  | 4.01 ± 0.38 | 21.2 ± 1.53 |  | 2.94 ± 0.25 | 1.44 ± 0.28 | good activity |  | 2550 ± 380
12 | COc1cc(OC)c2c(=O)c(OCCCCN3CCN(C(=O)c4cc(Cl)ccc4[N+](=O)[O-])CC3)c(-c3cc(OC)c(OC)c(OC)c3)oc2c1 [Compound 5l] | 5.81 ± 1.01 | 16.2 ± 1.45 |  | 5.2 ± 0.87 | 29.1 ± 1.75 |  | 3.8 ± 0.31 |  | good activity | 4.82 | 
